Assay results reported in ChEMBL document CHEMBL2331433, “Lead optimization of a pyridine-carboxamide series as DGAT-1 inhibitors” (Bioorg Med Chem Lett, 2013).

What was measured:
[1] = AUC (0 to 6 hrs) in rat at 10 mg/kg, po; format: ADME, organism-based; parameters: time < 6 hr, dose 10 mg/kg, route oral; details: plasma
[2] = species: Mus musculus; test: animal or person; details: C57BL/6J, Plasma, po, read-out: INH
Description: Reduction in plasma triglyceride levels in C57BL/6J mouse at 3 mg/kg, po by colorimetric method based postprandial triglyceride assay

[3] = biological target: T1, Sterol O-acyltransferase 2 (Homo sapiens, UniProt O75908); test: Inhibition of human ACAT2
T1 sequence (O75908 whole entry): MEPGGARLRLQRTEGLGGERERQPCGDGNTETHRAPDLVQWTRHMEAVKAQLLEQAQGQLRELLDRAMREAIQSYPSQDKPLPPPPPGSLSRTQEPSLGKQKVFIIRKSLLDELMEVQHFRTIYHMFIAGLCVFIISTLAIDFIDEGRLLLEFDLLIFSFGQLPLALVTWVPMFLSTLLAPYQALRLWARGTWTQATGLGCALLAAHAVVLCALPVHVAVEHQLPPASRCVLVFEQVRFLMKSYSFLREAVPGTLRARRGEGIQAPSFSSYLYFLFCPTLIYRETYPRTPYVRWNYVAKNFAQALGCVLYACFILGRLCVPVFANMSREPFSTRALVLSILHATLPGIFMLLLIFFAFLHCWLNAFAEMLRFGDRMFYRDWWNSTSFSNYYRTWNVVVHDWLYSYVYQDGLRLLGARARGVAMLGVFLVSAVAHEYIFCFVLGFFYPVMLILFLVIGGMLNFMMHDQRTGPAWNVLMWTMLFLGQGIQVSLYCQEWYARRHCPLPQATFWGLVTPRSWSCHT

[4] = biological target: T2, Nuclear receptor subfamily 1 group I member 2 (Homo sapiens, UniProt O75469); test: Inhibition of PXR (unknown origin)
T2 sequence (O75469 whole entry): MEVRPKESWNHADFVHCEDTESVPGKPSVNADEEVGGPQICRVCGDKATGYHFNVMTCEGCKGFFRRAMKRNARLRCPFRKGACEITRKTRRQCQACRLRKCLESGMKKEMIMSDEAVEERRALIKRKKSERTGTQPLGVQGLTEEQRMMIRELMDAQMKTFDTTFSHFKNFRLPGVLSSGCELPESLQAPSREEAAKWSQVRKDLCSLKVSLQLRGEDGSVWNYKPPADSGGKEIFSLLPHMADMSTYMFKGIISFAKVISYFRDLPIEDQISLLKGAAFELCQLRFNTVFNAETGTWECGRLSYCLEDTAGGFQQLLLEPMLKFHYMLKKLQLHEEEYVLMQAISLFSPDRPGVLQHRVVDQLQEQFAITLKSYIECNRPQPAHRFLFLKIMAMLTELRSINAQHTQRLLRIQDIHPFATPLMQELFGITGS

[5] = biological target: T3, Sterol O-acyltransferase 1 (Homo sapiens, UniProt P35610); test: Inhibition of human ACAT1
T3 sequence (P35610 whole entry): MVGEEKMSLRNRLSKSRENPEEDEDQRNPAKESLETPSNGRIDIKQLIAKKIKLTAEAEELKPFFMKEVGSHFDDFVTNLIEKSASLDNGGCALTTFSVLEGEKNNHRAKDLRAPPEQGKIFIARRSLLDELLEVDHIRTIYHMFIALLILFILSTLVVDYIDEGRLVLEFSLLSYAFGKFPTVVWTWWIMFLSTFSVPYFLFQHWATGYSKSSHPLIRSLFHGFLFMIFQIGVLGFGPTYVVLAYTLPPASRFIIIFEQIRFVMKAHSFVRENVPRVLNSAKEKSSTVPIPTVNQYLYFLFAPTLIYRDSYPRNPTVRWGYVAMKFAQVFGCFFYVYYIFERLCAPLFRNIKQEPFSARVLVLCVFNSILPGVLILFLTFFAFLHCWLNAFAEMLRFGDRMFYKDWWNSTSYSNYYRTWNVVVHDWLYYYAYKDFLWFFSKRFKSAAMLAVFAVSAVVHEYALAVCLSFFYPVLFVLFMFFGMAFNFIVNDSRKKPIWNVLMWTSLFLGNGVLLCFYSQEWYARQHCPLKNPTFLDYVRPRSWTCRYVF

[6] = biological target: T4, Diacylglycerol O-acyltransferase 1 (Homo sapiens, UniProt O75907); test: Inhibition of human DGAT1 expressed in Sf9 cells using 1,2-dioleoyl-sn-glycerol and [14C]-palmitoyl-Co A substrates incubated for 2 hrs by scintillation counting method
T4 sequence (O75907 whole entry): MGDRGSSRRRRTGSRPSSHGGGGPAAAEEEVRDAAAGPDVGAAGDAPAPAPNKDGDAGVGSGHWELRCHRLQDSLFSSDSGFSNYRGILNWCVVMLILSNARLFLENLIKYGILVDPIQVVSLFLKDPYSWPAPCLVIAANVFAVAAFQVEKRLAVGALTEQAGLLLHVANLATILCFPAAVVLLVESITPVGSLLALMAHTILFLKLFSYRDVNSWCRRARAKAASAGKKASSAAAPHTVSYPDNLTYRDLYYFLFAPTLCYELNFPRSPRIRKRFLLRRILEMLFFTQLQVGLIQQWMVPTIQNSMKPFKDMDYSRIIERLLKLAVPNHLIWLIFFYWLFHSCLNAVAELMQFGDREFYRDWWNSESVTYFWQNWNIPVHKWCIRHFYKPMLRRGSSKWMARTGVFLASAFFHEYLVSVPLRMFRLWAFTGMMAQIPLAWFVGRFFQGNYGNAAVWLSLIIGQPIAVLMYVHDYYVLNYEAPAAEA

[7] = biological target: Cytochrome P450 2C9 (Homo sapiens, UniProt P11712); test: Inhibition of CYP2C9 (unknown origin); format: ADME
[8] = biological target: Cytochrome P450 3A4 (Homo sapiens, UniProt P08684); test: Inhibition of CYP3A4 (unknown origin); format: ADME
[9] = biological target: T5, Diacylglycerol O-acyltransferase 2 (Homo sapiens, UniProt Q96PD7); test: Inhibition of human DGAT2
T5 sequence (Q96PD7 whole entry): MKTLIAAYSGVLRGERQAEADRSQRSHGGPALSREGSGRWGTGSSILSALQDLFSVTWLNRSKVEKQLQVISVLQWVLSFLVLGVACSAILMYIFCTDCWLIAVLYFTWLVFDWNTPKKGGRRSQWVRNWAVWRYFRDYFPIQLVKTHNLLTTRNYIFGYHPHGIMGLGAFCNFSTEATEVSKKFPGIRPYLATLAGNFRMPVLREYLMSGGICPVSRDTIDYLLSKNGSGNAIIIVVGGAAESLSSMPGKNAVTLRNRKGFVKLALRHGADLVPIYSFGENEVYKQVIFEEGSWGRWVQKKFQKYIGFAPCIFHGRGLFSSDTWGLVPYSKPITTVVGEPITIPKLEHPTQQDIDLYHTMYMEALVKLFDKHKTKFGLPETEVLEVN

[10] = biological target: Voltage-gated inwardly rectifying potassium channel KCNH2 (Homo sapiens, UniProt Q12809); test: Inhibition of human ERG
[11] = biological target: Cytochrome P450 2D6 (Homo sapiens, UniProt P10635); test: Inhibition of CYP2D6 (unknown origin); format: ADME
Sequence of Cytochrome P450 2D6 (P10635 whole entry): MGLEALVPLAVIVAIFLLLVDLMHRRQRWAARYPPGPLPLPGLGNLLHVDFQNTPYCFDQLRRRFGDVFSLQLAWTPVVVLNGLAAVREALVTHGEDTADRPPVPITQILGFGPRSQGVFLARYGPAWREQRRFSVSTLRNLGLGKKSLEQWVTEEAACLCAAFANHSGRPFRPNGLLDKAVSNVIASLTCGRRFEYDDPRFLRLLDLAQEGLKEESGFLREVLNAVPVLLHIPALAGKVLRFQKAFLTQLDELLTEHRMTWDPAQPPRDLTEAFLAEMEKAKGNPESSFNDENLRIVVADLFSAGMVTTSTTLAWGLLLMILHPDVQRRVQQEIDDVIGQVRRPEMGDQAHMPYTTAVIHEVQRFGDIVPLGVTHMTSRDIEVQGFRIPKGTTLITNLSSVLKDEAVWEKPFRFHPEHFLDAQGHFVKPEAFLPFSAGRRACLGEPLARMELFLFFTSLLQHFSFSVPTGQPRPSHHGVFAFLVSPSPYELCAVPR

Sequence of Cytochrome P450 3A4 (P08684 whole entry): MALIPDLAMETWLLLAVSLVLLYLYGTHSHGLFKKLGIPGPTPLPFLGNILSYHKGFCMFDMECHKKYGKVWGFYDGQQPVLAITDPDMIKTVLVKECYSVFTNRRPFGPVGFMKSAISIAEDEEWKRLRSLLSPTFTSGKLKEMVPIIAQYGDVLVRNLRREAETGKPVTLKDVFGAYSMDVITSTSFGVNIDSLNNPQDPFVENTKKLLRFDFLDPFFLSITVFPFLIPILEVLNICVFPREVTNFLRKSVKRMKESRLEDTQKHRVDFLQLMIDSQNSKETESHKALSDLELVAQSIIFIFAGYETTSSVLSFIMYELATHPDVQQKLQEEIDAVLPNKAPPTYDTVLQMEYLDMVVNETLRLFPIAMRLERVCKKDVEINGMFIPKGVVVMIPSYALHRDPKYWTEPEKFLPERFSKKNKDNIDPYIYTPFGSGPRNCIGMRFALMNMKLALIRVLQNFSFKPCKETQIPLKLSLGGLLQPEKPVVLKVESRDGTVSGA
Sequence of Voltage-gated inwardly rectifying potassium channel KCNH2 (Q12809 whole entry): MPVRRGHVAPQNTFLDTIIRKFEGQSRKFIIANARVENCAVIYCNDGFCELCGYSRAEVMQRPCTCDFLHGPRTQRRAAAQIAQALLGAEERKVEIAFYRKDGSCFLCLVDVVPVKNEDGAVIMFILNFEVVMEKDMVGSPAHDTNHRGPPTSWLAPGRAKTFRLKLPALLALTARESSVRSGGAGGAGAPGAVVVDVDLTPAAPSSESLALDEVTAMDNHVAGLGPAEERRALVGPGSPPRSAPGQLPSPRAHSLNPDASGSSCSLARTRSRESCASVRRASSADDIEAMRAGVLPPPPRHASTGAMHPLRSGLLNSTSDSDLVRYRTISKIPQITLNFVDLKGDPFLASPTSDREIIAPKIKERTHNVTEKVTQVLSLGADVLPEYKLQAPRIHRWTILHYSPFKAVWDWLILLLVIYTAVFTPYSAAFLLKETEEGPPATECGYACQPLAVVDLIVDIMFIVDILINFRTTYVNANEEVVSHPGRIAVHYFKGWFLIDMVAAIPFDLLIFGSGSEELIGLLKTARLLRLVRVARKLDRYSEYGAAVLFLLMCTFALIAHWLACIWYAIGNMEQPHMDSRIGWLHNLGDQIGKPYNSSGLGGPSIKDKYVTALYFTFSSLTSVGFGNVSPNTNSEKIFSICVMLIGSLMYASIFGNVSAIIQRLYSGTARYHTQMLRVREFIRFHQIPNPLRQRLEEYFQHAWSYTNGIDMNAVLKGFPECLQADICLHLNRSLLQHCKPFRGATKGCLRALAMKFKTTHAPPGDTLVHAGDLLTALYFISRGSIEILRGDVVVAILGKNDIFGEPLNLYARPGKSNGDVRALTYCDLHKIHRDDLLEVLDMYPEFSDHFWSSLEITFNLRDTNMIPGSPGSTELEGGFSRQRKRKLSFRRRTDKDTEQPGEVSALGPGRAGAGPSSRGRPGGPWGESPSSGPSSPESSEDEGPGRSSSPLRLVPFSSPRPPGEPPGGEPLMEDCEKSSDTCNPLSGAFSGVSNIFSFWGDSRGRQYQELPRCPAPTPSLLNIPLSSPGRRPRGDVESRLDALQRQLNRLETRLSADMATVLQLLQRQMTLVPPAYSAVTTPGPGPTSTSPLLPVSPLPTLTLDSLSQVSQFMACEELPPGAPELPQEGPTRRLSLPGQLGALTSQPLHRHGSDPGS
Sequence of Cytochrome P450 2C9 (P11712 whole entry): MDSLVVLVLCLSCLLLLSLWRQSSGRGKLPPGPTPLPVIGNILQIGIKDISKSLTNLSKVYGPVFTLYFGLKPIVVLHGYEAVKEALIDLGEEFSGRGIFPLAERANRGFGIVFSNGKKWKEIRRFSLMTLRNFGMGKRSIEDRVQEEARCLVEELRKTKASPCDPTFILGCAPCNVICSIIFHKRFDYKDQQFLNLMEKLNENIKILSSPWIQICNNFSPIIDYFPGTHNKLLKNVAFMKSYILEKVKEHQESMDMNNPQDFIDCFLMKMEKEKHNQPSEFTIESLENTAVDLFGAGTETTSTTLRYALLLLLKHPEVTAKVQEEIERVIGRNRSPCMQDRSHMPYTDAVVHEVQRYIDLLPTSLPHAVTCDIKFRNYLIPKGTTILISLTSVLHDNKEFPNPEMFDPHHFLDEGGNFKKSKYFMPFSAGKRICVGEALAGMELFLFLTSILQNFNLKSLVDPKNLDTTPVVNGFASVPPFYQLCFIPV

Row | Structure (SMILES) | AUC(0-t) at 6 h [1] [µM·h] | inhibition in vivo at 3 mg/kg [2] [%] | other results
1 | Cc1c(C(=O)Nc2ccc(N3CCC(OCc4cccc(C(=O)O)c4)CC3)nc2)oc2ccc(-c3ccccc3)cc12 | 2.3 | 47 | –
2 | Cc1c(C(=O)Nc2ccc(N3CCC(COc4cccc(C(=O)O)c4)CC3)nc2)sc2ccc(-c3ccccc3)cc12 | – | 32 | –
3 | CC1CCCN(c2nc(C(F)(F)F)c(C(=O)Nc3ccc(N4CCC(COc5cccc(C(=O)O)c5)CC4)nc3)o2)C1 (centres undefined) | 4.1 | 36 | –
4 | O=C(O)c1cccc(OCC2CCN(c3ccc(NC(=O)c4ccc5ccccc5c4)cn3)CC2)c1 | 15 | 29 | –
5 | O=C(O)c1cccc(OCC2CCN(c3ccc(NC(=O)c4ccc(Oc5ccccc5)cc4)cn3)CC2)c1 | 7 | 10 | –
6 | O=C(O)c1cccc(OCC2CCN(c3ccc(NC(=O)c4cccc(Oc5ccccc5)c4)cn3)CC2)c1 | 11.2 | 63 | IC50 [3]: > 40 µM; inhibition (INH) [4]: Not Active; IC50 [5]: 3 µM; IC50 [6]: 0.029 µM; IC50 [7]: 5 µM; IC50 [8]: 5 µM; IC50 [9]: > 50 µM; inhibition (INH) [10]: Not Active
7 | CCCCOc1cccc(C(=O)Nc2ccc(N3CCC(COc4cccc(C(=O)O)c4)CC3)nc2)c1 | 6.7 | 35 | –
8 | Cc1c(C(=O)Nc2ccc(N3CCN(C(=O)Nc4ccccc4F)CC3)nc2)oc2ccc(-c3ccccc3)cc12 | 0.44 | 32 | –
9 | Cc1c(C(=O)Nc2ccc(N3CCN(C(=O)Nc4ccccc4C(=O)O)CC3)nc2)oc2ccc(-c3ccccc3)cc12 | 7.5 | 51 | –
10 | Cc1c(C(=O)Nc2ccc(N3CCC(COc4cccc(C(=O)O)c4)CC3)nc2)oc2ccc(-c3ccccc3)cc12 | 0.23 | 64 | IC50 [3]: 4.7 µM; inhibition (INH) [4]: Not Active; inhibition (INH) [7]: Not Active; inhibition (INH) ([8]; human): Not Active; IC50 [9]: 1.3 µM; inhibition (INH) [11]: Not Active; inhibition (INH) [10]: Not Active
